The values that follow come from PubChem BioAssay (NCI).

SMILES strings stand for the structures.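 Five concentrations, 48 hours, 96-well plates. Definition used: TGI = concentration required for complete inhibition of growth.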

Among the test systems are HCT-15 colon; U251 CNS; OVCAR-5 ovarian; SK-MEL-2 melanoma; EKVX NSCLC; MCF7 breast; KM12 colon; UACC-62 melanoma; M14 melanoma; ACHN renal; SN12C renal.
Assay in all cases: NCI tumour cell line growth inhibition, 48 h

On to `COc1cc(OCCN(C)C)c2[nH]c(C(=O)N3CC(CCl)c4ccc(N)cc43)cc2c1` (centres undefined), for which the TGI in the experiment on HCT-15 colon turned out to be 1.58 µM; with U251 CNS, 3.32 µM; in the experiment on OVCAR-5 ovarian, 5.63 µM; in the experiment on SK-MEL-2 melanoma, 0.0933 µM; in the experiment with EKVX NSCLC it was 1.37 µM; in the experiment on MCF7 breast, 0.133 µM. In addition, the TGI in the experiment with KM12 colon was determined as 0.126 µM; in the experiment on UACC-62 melanoma it was 0.567 µM; in the experiment with M14 melanoma it was 1.13 µM.
Consider `CON(C)C(=O)C(C)N(Cc1ccccc1)Cc1ccccc1` (centres undefined), for which the TGI with HCT-15 colon, in the experiment with U251 CNS, in the experiment on OVCAR-5 ovarian, in the experiment with EKVX NSCLC, with MCF7 breast and with ACHN renal was greater than 100 µM each time. The TGI in the experiment with KM12 colon, with UACC-62 melanoma and with M14 melanoma was greater than 100 µM throughout.
On to `CCCCCCc1cc2cc(-c3cn4ccsc4n3)c(=O)oc2cc1O`, for which the TGI in the experiment with HCT-15 colon, in the experiment with U251 CNS, in the experiment with OVCAR-5 ovarian, in the experiment with SK-MEL-2 melanoma, in the experiment with EKVX NSCLC and in the experiment with MCF7 breast was greater than 100 µM each time. The TGI in the experiment with ACHN renal is greater than 100 µM; with SN12C renal, greater than 100 µM; in the experiment with KM12 colon it was greater than 100 µM; with UACC-62 melanoma, greater than 50.8 µM.
Regarding `Cc1ccc(S(=O)(=O)N2C3C=CC(C3)[C@@H]2C(Cl)(Cl)Cl)cc1` (some centres undefined), the TGI was 62.6 µM in the experiment on HCT-15 colon; 40.1 µM in the experiment on U251 CNS; 35.5 µM with SK-MEL-2 melanoma; 55 µM in the experiment on EKVX NSCLC; greater than 100 µM with MCF7 breast; 53.1 µM with ACHN renal. The TGI with SN12C renal was found to be 44.2 µM; in the experiment with KM12 colon it was 85.5 µM; in the experiment with UACC-62 melanoma, 35.2 µM; with M14 melanoma, 39.1 µM.
Take `COC(=O)CC(C)(NS(=O)c1ccc(C)cc1)c1ccccc1` (centres undefined): the TGI with HCT-15 colon, in the experiment with U251 CNS, in the experiment on OVCAR-5 ovarian, in the experiment on SK-MEL-2 melanoma, in the experiment on EKVX NSCLC and with MCF7 breast was greater than 100 µM throughout. Further, the TGI with ACHN renal, in the experiment with SN12C renal, in the experiment on KM12 colon and in the experiment on UACC-62 melanoma was greater than 100 µM throughout.
For the molecule `Cc1ccc2nc(-c3ccccc3)cc(=O)n2c1`, the TGI in the experiment on HCT-15 colon, with U251 CNS, in the experiment with OVCAR-5 ovarian, in the experiment with EKVX NSCLC, in the experiment with MCF7 breast and in the experiment on ACHN renal was greater than 100 µM throughout. Besides, the TGI in the experiment on SN12C renal, with KM12 colon, with UACC-62 melanoma and with M14 melanoma was greater than 100 µM in each case.
As for `CC1NC(=O)C(C)C(c2ccccc2)N(N=O)C1c1ccccc1` (centres undefined), the TGI in the experiment on HCT-15 colon, with U251 CNS, in the experiment on OVCAR-5 ovarian, with SK-MEL-2 melanoma, in the experiment on EKVX NSCLC and in the experiment with MCF7 breast was greater than 100 µM throughout. For the same molecule, the TGI in the experiment on SN12C renal, in the experiment on KM12 colon and in the experiment on UACC-62 melanoma was greater than 100 µM throughout.
As for `Cc1ccc(S[C@@H](C)[C@@](O)(CF)CN(Cc2ccccc2)C(=O)C(F)(F)F)cc1`, the TGI was 55.5 µM with HCT-15 colon; 35.3 µM in the experiment with U251 CNS; 34.8 µM with OVCAR-5 ovarian; 36.5 µM with SK-MEL-2 melanoma; 64.9 µM in the experiment with EKVX NSCLC; 58.2 µM with MCF7 breast. Besides, the TGI in the experiment with ACHN renal worked out at 60.3 µM; in the experiment on SN12C renal, 33.5 µM; in the experiment with UACC-62 melanoma, 34.8 µM; in the experiment on M14 melanoma, 31.7 µM.
For the molecule `C(=C/CCCN1O[C@@H](CCCCCCCCc2cccnc2)[C@H]2CCC[C@H]21)/CCCCCCCCCc1cccnc1`, the TGI with HCT-15 colon came to 58.9 µM; with U251 CNS, 34.5 µM; with OVCAR-5 ovarian, 41.5 µM; in the experiment with SK-MEL-2 melanoma, 52.4 µM; with EKVX NSCLC, 13.9 µM; with MCF7 breast it was 31.6 µM. The TGI amounted to 40.3 µM in the experiment with SN12C renal, 58.7 µM with KM12 colon, 51 µM in the experiment with UACC-62 melanoma and 63 µM with M14 melanoma.
As for `CCOC(=O)c1csc(NC(=O)CN2CCCC2)n1`, the TGI in the experiment on HCT-15 colon, in the experiment on U251 CNS, with OVCAR-5 ovarian, in the experiment with SK-MEL-2 melanoma, with EKVX NSCLC and with MCF7 breast was greater than 100 µM in each case. Also, the TGI in the experiment on ACHN renal, in the experiment on KM12 colon, with UACC-62 melanoma and in the experiment on M14 melanoma was greater than 100 µM in each case.
Take `Cc1cc(OC(=O)Nc2cccc3ccccc23)c(C(C)C)cc1C(=S)Nc1ccccc1`: the TGI was determined as 29.2 µM in the experiment with HCT-15 colon; 35.4 µM in the experiment on U251 CNS; 46 µM in the experiment on OVCAR-5 ovarian; 28.3 µM in the experiment with SK-MEL-2 melanoma; 61.6 µM with EKVX NSCLC; 34.7 µM with MCF7 breast. The TGI turned out to be 73.5 µM in the experiment with ACHN renal, 36.4 µM in the experiment on KM12 colon, 26.5 µM with UACC-62 melanoma and 37 µM in the experiment on M14 melanoma.
As for `CCOC(=O)c1nnn(CCCCO)c1C(=O)OCC`, the TGI with HCT-15 colon, in the experiment on U251 CNS, in the experiment with SK-MEL-2 melanoma, in the experiment with EKVX NSCLC, in the experiment with MCF7 breast and with SN12C renal was greater than 100 µM throughout. Moreover, the TGI in the experiment on KM12 colon and with UACC-62 melanoma was greater than 100 µM each time.
As for `CCOC(=O)CCCSCCCC(=O)CCCSCCCC(=O)OCC`, the TGI in the experiment on HCT-15 colon, in the experiment on U251 CNS, in the experiment on OVCAR-5 ovarian, in the experiment on EKVX NSCLC, with MCF7 breast and in the experiment on SN12C renal was greater than 100 µM each time. In addition, the TGI in the experiment with KM12 colon, in the experiment on UACC-62 melanoma and in the experiment on M14 melanoma was greater than 100 µM in each case.
For `CCOC(=O)C12OC(OCC)(CC1(OCC)OCC)C1(CC1)C2=O` (centres undefined), the TGI with HCT-15 colon, with U251 CNS, with OVCAR-5 ovarian, in the experiment with SK-MEL-2 melanoma, in the experiment on EKVX NSCLC and with MCF7 breast was greater than 100 µM in each case. The TGI with ACHN renal, in the experiment on SN12C renal, in the experiment with KM12 colon and with M14 melanoma was greater than 100 µM in each case.
